Key:
[1] = Lipophilicity, chromatographic hydrophobicity index on C18 (Valko protocol); assay type: physicochemical
Description: Lipophilicity and affinity for phospholipids for each investigated molecule were assessed. Additionally, selected compounds with the highest biological activities have been characterized by their affinity plasma proteins. All experiments were performed using protocols developed by Valko.[35] These methods facilitated the calculation of chromatographic hydrophobicity indices (CHI) and plasma protein binding percentages (%PPB) in a biochromatographic experiment, with results compared to the reference. A detailed description of the experiments is provided in the Supporting Information (SI), along with the raw data. […] Although high lipophilicity may limit the medical use of the analyzed compounds since they may tend to accumulate excessively in the human body, it is remarkable that several clinically used drugs also have high lipophilicity. […] (Table 5).
The detailed procedure is presented in previous publications.[53] High-performance liquid chromatography (HPLC) analyses were conducted using the Prominence-1 LC-2030C 3D system (Shimadzu) with a DAD detector, employing three different chromatographic columns with specific stationary phases and mobile phases. The analysis was performed at 30 °C with a flow rate of 1.5 mL/min for IAM and C18 columns, and 0.9 mL/min for the Chiralpak column. Calibration standards for the columns were sourced from various suppliers and dissolved in dimethyl sulfoxide. Detection occurred in the UV range (190–300 nm) with a 5 μL injection volume. Each compound was analyzed in triplicate. Retention times for the tested compounds and calibration standards are provided in the Supporting Information (Tables S1 and S2).

5-HT6 = molecular target: T1, 5-HT6 (Homo sapiens, UniProt P50406); experiment: Functional cAMP assay (LANCE Ultra), 5-HT6; assay type: cell-based; details: Table 3, unit inferred, agonist mode
T1 construct: expressed in transfected cells; host or cells: HEK293
T1 sequence (P50406 whole entry): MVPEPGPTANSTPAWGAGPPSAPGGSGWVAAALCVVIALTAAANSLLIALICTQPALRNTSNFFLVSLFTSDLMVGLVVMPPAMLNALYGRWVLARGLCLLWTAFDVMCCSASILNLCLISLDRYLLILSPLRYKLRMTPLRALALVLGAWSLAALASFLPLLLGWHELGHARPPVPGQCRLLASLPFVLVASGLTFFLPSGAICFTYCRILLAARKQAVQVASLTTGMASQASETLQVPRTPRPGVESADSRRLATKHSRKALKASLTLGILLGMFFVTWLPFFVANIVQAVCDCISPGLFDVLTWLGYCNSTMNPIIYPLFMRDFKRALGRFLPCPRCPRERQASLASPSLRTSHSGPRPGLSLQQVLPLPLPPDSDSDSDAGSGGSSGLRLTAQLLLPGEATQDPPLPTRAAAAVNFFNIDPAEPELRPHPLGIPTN

5-HT7 = molecular target: T2, 5-HT7 (Homo sapiens, UniProt P34969); experiment: Radioligand binding assay, 5-HT7 ([3H]-5-CT); details: Table 3, unit inferred; 0.8 nM [3H]-5-CT
T2 construct: expressed in transfected cells; host or cells: HEK293
T2 sequence (P34969 whole entry, species assumed): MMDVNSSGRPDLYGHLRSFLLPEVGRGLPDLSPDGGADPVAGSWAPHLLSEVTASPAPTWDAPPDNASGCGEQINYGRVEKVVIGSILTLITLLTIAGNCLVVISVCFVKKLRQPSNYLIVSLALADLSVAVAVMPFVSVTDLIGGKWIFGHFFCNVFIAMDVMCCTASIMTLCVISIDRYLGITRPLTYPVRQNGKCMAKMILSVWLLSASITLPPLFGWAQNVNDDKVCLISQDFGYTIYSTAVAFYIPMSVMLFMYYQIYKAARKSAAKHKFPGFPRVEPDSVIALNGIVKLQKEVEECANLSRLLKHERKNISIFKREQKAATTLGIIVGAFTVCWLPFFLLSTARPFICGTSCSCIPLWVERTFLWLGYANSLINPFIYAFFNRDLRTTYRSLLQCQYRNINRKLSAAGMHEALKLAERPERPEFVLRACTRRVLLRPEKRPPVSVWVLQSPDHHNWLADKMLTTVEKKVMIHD
Description: Their functional activity was also evaluated by assessing their ability to inhibit agonist-induced cAMP production in HEK293 cells (Table 3). Extended radioisotope tests were aimed at detecting potential affinity for other aminergic receptors, whose role in cancer treatment may be important. Functions were tested for all receptors. The essence of functional tests results from the fact that serotonin stimulates tumor progression. Therefore, the ligand should have the potential to reduce its concentration, i.e., act as an antagonist.[39]
The detailed procedure is presented in previous publications.[53] Assays were performed by incubating for 1 h at 37 °C (room temperature for 5-HT1A) in 200 μL volumes on 96-well plates. The reaction was terminated by rapid filtration using Unifilter plates, and radioactivity on the filters was measured with a PerkinElmer Microbeta plate reader. Radioligands used were:
Eight concentrations (10^–4 to 10^–11 M) were tested in triplicate for each compound. Inhibition constants (Ki) were calculated using the Cheng–Prusoff equation.[54] The results are expressed as the means of at least two independent experiments.

Danio rerio = details: in vivo
Description: Two compounds, PP 10 and PP 15, were tested for cardiotoxicity in the Danio rerio experimental model (OECD 236 test). […]. To assess potential neurotoxic effects, locomotor activity was examined in the Danio rerio model. Zebrafish larvae’s response to light and dark transitions serves as a useful method for detecting neurotoxicity. […] In our experiment, we switched from light to dark conditions, as zebrafish larvae are known to avoid light and seek darker areas. This behavior helps them evade predators and maintain ideal environmental conditions. […]
Figure 4 A: Toxicity of PP 10 and PP 15in vivo in the Danio reiro embryo toxicity test. […] Cardiotoxicity of compounds B: PP 10 and C: PP 15 was evaluated by measuring the heart rate (beats per minute) in 5-dpf Danio rerio larvae, maintained in the E3 fish embryo growth medium. Statistical analysis was performed using GraphPad Prism 10.0.0, with one-way ANOVA followed by Dunnett’s comparison test (*p < 0.05, compared to the negative control E3). […] | The toxicity of compounds was evaluated using two tests: the fish embryo toxicity (FET) test and neurotoxicity assessment.[53] […] Acute toxicity was assessed by monitoring signs such as coagulation of fertilized eggs, somite formation absence, tailbud separation, and lack of heartbeat. The LD50 value was calculated, and cardiovascular effects were monitored through heartbeat observations.

CYP2D6 = molecular target: T3, CYP2D6 (Homo sapiens, UniProt P10635); experiment: P450-Glo assay, CYP2D6; assay type: in vitro ADME
T3 construct: purchased Promega
T3 sequence (P10635 whole entry): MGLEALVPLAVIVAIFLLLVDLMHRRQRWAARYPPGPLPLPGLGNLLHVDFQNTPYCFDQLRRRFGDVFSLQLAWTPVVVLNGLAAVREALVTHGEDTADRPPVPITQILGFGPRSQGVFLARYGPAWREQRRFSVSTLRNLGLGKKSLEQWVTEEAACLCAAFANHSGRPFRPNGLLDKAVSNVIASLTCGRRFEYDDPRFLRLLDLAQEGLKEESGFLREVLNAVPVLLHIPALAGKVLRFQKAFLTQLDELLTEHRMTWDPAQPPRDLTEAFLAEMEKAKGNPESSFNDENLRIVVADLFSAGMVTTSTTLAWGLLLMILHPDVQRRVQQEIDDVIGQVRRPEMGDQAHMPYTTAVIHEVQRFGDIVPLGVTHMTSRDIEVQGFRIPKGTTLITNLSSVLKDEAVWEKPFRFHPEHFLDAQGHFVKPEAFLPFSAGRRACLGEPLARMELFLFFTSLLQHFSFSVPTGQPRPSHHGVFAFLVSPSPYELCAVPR
Excerpt: (§1) In order to evaluate excretion, we examined the effect on the activity of two cytochrome P-450 isoforms. Inhibition of their activity may lead to the occurrence of drug–drug interactions.

CYP3A4 = molecular target: T4, CYP3A4 (Homo sapiens, UniProt P08684); experiment: P450-Glo assay, CYP3A4; assay type: in vitro ADME
T4 construct: purchased Promega
T4 sequence (P08684 whole entry): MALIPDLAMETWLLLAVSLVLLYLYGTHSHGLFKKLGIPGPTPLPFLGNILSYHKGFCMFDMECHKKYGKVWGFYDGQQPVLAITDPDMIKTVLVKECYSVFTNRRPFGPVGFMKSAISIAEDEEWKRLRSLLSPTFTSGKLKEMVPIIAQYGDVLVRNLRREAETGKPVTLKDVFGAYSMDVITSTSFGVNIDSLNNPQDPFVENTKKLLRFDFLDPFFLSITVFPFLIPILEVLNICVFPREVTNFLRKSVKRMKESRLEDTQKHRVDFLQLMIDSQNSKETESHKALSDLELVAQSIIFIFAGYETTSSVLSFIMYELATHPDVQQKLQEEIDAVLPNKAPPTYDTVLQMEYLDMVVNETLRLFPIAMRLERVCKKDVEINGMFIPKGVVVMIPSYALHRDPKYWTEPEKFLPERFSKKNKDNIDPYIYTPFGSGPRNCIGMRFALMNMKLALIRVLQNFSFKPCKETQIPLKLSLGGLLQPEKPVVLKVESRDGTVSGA
Excerpt: as §1

[2] = system: normal human astrocytes (NHA); experiment: Cytotoxicity (MTS), normal human astrocytes; assay type: cell-based; details: for IC50: Homo sapiens, Astrocyte, 72 h, normal human astrocytes, MTS assay
Description: The chosen group of ligands was further examined for their ability to inhibit proliferation across multiple cancer cell lines related to the CNS system (1321N1, U87MG, LN-229, and U-251). These cell lines were characterized by different mutation profiles, the main one being the variable status of the p53 protein. In detail, U87MG cells have a wild-type p53 protein, while astrocytoma and the rest of GBM cells harbor mutated p53 protein. Additional assays were performed on MCF7 breast cancer and AsPC-1 pancreatic cancer cells. The wide range of tested lines was aimed at screening the anticancer potential of the tested compounds. The first represents one of the most common and the second one of the most aggressive cancers in the world. Comparing the activity of compounds on GBM cells to other types of cancer may reveal their selectivity and usefulness in targeted therapies. The cytotoxicity of the compounds on normal human astrocytes (NHA) and Feline catus astrocyte (PG-4) was determined. Tests on normal lines serve to verify the potential toxicity of the tested compounds on healthy cells. Due to the targeting of CNS tumors, astrocytes were selected as normal lines.
The detailed procedure is presented in previous publications.[53] Briefly, the study utilized various human cancer and normal cell lines, including LN-229 (glioblastoma), MCF7 (breast carcinoma), HepG2 (hepatoma), U-251 (glioblastoma), U87MG (glioblastoma), AsPC-1 (pancreatic adenocarcinoma), and NHA (normal human astrocytes). Cells were cultured in appropriate media, supplemented with FBS, antibiotics, and other supplements, and incubated at 37 °C with 5% CO2. Compounds were dissolved in DMSO, prepared at various concentrations (1–25 μM), and applied to the cells for 72 h. Cell viability was assessed using the MTS assay, and the inhibitory concentration (IC50) was calculated using GraphPad Prism 8.0. Each compound was tested in triplicate across multiple experiments.

CHI C18 pH 2.6 [1]	CHI C18 pH 7.4 [1]	CHI C18 pH 10.5 [1]	EC50 (5-HT6) [nM]	Structure (SMILES)	Ki (5-HT7) [nM]	cardiotoxic effects (heart rate) (Danio rerio)	impact on the activity of CYP2D6 (CYP2D6)	impact on the activity of CYP3A4 (CYP3A4)	IC50 [2] [µM]	selectivity index ([2]; normal astrocytes versus cancer cell lines)
92.9	101.5	138.2	367	O=S(=O)(c1cccc2ccccc12)N1CCN(CCNC2=Nc3ccccc3CN2)CC1 [PP 6, N-{2-[4-(Naphthalene-1-sulfonyl)piperazin-1-yl]ethyl}-3,4-dihydroquinazolin-2-amine]	2400	–	–	–	–	–
115.8	105.7	128.8	488	CC1NC(NCCCCCCNS(=O)(=O)c2c(Cl)ccc3ccccc23)=Nc2ccccc21 (stereo not shown) [PP 13, 2-Chloro-N-{6-[(4-methyl-3,4-dihydroquinazolin-2-yl)amino]hexyl}naphthalene-1-sulfonamide]	198	–	–	–	4.2 ± 0.4	–
84.7	103.2	127	–	O=S1(=O)c2cccc3cccc(c23)N1CCCCCCNC1=Nc2ccccc2CN1 [PP 24, 3-{6-[(3,4-Dihydroquinazolin-2-yl)amino]hexyl}-2λ^6-thia-3-azatricyclo[6.3.1.0^4,^12]dodeca-1(11),4(12),5,7,9-pentaene-2,2-dione]	–	–	–	–	7.9 ± 0.4	below 1

Structure (SMILES)	CHI C18 pH 2.6 [1]	CHI C18 pH 7.4 [1]	CHI C18 pH 10.5 [1]	EC50 (5-HT6) [nM]	Ki (5-HT7) [nM]	cardiotoxic effects (heart rate) (Danio rerio)	impact on the activity of CYP2D6 (CYP2D6)	impact on the activity of CYP3A4 (CYP3A4)	IC50 [2] [µM]	selectivity index ([2]; normal astrocytes versus cancer cell lines)
CC1NC(NCCCCCCNS(=O)(=O)c2cccc3ccccc23)=Nc2ccccc21 (stereo not shown) [PP 10, N-{6-[(4-Methyl-3,4-dihydroquinazolin-2-yl)amino]hexyl}naphthalene-1-sulfonamide]	89.8	99.7	120.4	–	189	Neither compound displayed cardiotoxic effects	strong effect at a concentration of 1 μM	weakest interaction	12.6 ± 0.4	–
O=S(=O)(NCCCCCCNc1ncc2ccccc2n1)c1cccc2ccccc12 [PP 15, N-{6-[(Quinazolin-2-yl)amino]hexyl}naphthalene-1-sulfonamide]	99	104.4	107.2	–	1560	Neither compound displayed cardiotoxic effects	passive	passive	–	–
